This note sets out measurements from patent US10023528B2, “Branched 3-phenylpropionic acid derivatives and their use” (BAYER INTELLECTUAL PROPERTY GMBH, priority 2011, dated 2018).

pEC50: −log10 of the molar value.

Assay [1] deals with recombinant guanylate cyclase reporter cell line (CHO reporter cell). Put plainly: Action at a recombinant guanylate cyclase reporter cell line. The assay is classed as cell-based. Conditions: CHO reporter cell in vitro; read-out: MEC (minimum effective concentration), sGC-activating activity in the CHO reporter cell. How it is done:
The cellular action of the compounds according to the invention is determined at a recombinant guanylate cyclase reporter cell line, as described in F. Wunder et al., Anal. Biochem. 339, 104-112 (2005).

For assay [2], the target named is soluble guanylate cyclase (sGC) (Rattus norvegicus (Rat), UniProt P20595). Nature of the assay: Stimulation of sGC enzyme activity (PPi detection, luciferase). The assay is classed as biochemical. Conditions: sGC enzyme in vitro; for pEC50: read-out: EC50 (concentration at 50% of maximum efficacy), activating action at the sGC enzyme. As to the method: Soluble guanylate cyclase (sGC) converts on stimulation GTP into cGMP and pyrophosphate (PPi). PPi is detected with the aid of the assay described below. The signal produced in the assay increases as the reaction progresses and serves as a measure of the sGC enzyme activity under the given stimulation.
To carry out the assay, 29 μl of enzyme solution [0-10 nM soluble guanylate cyclase (prepared according to Hönicka et al, J. Mol. Med. 77, 14-23 (1999)) in 50 mM TEA, 2 mM MgC2, 0.1% BSA (fraction V), 0.005% Brij®, pH 7.5] are initially introduced into a microplate, and 1 μl of the substance to be tested (as a serially diluted solution in DMSO) is added. The mixture is incubated at room temperature for 10 min. Then 20 μl of detection mix [1.2 nM Firefly Luciferase (Photinus pyralis luciferase, Promega), 29 μM dehydroluciferin (prepared according to Bitler & McElroy, Arch. Biochem. Biophys. 72, 358 (1957)), 122 μM luciferin (Promega), 153 μM ATP (Sigma) and 0.4 mM DTT (Sigma) in 50 mM TEA, 2 mM MgCl2, 0.1% BSA (fraction V), 0.005% Brij®, pH 7.5] are added. The enzyme reaction is started by adding 20 μl of substrate solution [1.25 mM guanosine 5′-triphosphate (Sigma) in 50 mM TEA, 2 mM MgC2, 0.1% BSA (fraction V), 0.005% Brij®, pH 7.5] and measured continuously in a luminometer. The extent of the stimulation by the substance to be tested can be determined relative to the signal of the unstimulated reaction.
The activation of haem-free guanylate cyclase is examined by addition of 25 μM of 1H-1,2,4-oxadiazolo[4,3-a]quinoxalin-1-one (ODQ) to the enzyme solution and subsequent incubation for 30 minutes and compared to the stimulation of the native enzyme.

Chain of soluble guanylate cyclase (sGC) (P20595 whole entry): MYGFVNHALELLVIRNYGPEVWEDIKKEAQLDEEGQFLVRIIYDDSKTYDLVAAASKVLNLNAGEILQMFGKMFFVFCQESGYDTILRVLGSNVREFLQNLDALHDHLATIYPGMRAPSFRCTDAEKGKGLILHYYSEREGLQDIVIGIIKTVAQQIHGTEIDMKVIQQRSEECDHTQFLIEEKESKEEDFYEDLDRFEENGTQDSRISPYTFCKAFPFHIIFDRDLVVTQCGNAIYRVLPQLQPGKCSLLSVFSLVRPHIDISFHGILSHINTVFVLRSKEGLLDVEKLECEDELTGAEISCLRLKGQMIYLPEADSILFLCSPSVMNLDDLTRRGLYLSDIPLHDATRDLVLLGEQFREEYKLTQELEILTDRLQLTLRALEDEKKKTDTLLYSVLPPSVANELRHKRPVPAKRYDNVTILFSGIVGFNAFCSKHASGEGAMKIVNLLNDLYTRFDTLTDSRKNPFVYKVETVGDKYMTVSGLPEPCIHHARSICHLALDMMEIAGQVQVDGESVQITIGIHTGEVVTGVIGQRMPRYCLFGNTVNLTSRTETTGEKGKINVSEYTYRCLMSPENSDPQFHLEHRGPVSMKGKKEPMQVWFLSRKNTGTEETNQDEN
Chain of soluble guanylate cyclase (sGC) (P19686 whole entry partner): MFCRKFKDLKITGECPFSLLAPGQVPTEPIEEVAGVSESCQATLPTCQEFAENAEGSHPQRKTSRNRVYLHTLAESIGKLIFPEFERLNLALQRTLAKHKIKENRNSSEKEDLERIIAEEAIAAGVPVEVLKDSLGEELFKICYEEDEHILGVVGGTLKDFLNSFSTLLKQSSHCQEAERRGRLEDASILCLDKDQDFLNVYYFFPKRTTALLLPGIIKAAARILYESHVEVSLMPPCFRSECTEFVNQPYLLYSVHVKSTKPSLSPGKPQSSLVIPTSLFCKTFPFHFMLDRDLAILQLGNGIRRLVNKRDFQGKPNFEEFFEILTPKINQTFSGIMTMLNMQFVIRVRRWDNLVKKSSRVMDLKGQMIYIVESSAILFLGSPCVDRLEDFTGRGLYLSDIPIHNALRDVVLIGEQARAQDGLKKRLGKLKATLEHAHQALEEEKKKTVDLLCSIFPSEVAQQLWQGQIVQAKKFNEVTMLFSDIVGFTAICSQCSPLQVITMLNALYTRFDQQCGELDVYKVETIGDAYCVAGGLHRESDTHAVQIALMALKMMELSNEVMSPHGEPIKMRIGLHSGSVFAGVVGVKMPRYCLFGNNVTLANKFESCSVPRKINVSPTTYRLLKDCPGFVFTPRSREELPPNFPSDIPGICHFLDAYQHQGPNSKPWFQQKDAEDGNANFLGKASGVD

`CC(C)C(C)(CC(=O)O)c1ccc(Cl)c(NC(=O)[C@H](c2ccc(Cl)cc2)[C@@H](C)C(F)(F)F)c1` (single isomer, unassigned) [Example 4]: the minimal effective concentration in assay [1] worked out at 0.003 µM. Also, in assay [2], the “MEC (minimum effective concentration), activating action at the sGC enzyme” value (“MEC (minimum effective concentration)” below) was 2.4 nM and the pEC50 was 6.96. In the same order, the values of `C[C@H]([C@H](C(=O)Nc1cc(C(C)(CC(=O)O)C2CCC2)ccc1Cl)c1ccc(Cl)cc1)C(F)(F)F` (single isomer, unassigned) [Example 5] are 0.0003 µM, 0.3 nM and 8.28. In the same order, the values of `C[C@H]([C@H](C(=O)Nc1cc(C(C)(CC(=O)O)C2CCC2)ccc1Cl)c1ccc(Cl)cc1)C(F)(F)F` (single isomer, unassigned) [Example 6] are 0.001 µM, 1.1 nM and 7.25. Regarding `C[C@H]([C@H](C(=O)Nc1cc(C(CC(=O)O)C2(C)CC2)ccc1Cl)c1ccc(Cl)cc1)C(F)(F)F` (single isomer, unassigned) [Example 26], the minimal effective concentration in assay [1] is 0.01 µM. In the case of `C[C@H]([C@H](C(=O)Nc1cc(C(CC(=O)O)CC2CC2)ccc1Cl)c1ccc(Cl)cc1)C(F)(F)F` (single isomer, unassigned) [Example 35], in assay [1], the minimal effective concentration was 0.0003 µM. Further, in assay [2], the “MEC (minimum effective concentration)” value came to 1 nM and the pEC50 was 7.96. As to `C[C@H]([C@H](C(=O)Nc1cc(C(CC(=O)O)CC2CC2)ccc1Cl)c1ccc(Cl)cc1)C(F)(F)F` (single isomer, unassigned) [Example 36], the minimal effective concentration in assay [1] is 0.003 µM. `CC(C)C(CC(=O)O)c1ccc(Cl)c(NC(=O)[C@H](c2ccc(Cl)cc2)[C@@H](C)C(F)(F)F)c1` (single isomer, unassigned; (+)) [Example 1]: the minimal effective concentration in assay [1] amounted to 0.003 µM. In assay [2], the “MEC (minimum effective concentration)” value is 1 nM and the pEC50 was 7.66. As to `CC(C)C(CC(=O)O)c1ccc(Cl)c(NC(=O)[C@H](c2ccc(Cl)cc2)[C@@H](C)C(F)(F)F)c1` (single isomer, unassigned; (+)) [Example 2], the minimal effective concentration in assay [1] stood at 0.0065 µM. Besides, in assay [2], the “MEC (minimum effective concentration)” value was 4 nM and the pEC50 was 7.05. `C[C@H]([C@H](C(=O)Nc1cc(C(CC(=O)O)C2CCC2)ccc1Cl)c1ccc(Cl)cc1)C(F)(F)F` (single isomer, unassigned; (+)) [Example 33]: the minimal effective concentration in assay [1] amounted to 0.001 µM. Besides, in assay [2], the “MEC (minimum effective concentration)” value is on record as 0.4 nM and the pEC50 is 7.96.

On to `C[C@H]([C@H](C(=O)Nc1cc(C(CC(=O)O)C2CCC2)ccc1Cl)c1ccc(Cl)cc1)C(F)(F)F` (single isomer, unassigned; (+)) [Example 34], for which, in assay [1], the minimal effective concentration turned out to be 0.01 µM.

On to `C[C@H]([C@H](C(=O)Nc1cc(C(C)(CC(=O)O)C2CC2)ccc1Cl)c1ccc(Cl)cc1)C(F)(F)F` (stereo partly shown) [Example 7], for which, in assay [1], the minimal effective concentration amounted to 0.3 µM. For the compound `CCc1ccc([C@@H](C(=O)Nc2cc(C(CC(=O)O)C(C)C)ccc2Cl)[C@@H](C)C(F)(F)F)cc1` (stereo partly shown) [Example 8], the minimal effective concentration in assay [1] is 0.001 µM.

As to `CC(C)C(CC(=O)O)c1ccc(Cl)c(NC(=O)[C@H](c2ccc(Cl)c(F)c2)[C@@H](C)C(F)(F)F)c1` (stereo partly shown) [Example 9], the minimal effective concentration in assay [1] was 0.001 µM. Regarding `CC(C)C(CC(=O)O)c1ccc(Cl)c(NC(=O)[C@H](c2ccc(F)cc2)[C@@H](C)C(F)(F)F)c1` (stereo partly shown) [Example 11], in assay [1], the minimal effective concentration came out at 0.003 µM. As to `CC(C)C(CC(=O)O)c1ccc(Cl)c(NC(=O)C(c2ccc(CC(F)(F)F)cc2)C(C)C(F)(F)F)c1` (stereo not shown) [Example 12], the minimal effective concentration in assay [1] worked out at 0.001 µM. Further, in assay [2], the “MEC (minimum effective concentration)” value was found to be 1.1 nM and the pEC50 is 7.77. Take `CC(C)C(CC(=O)O)c1ccc(Cl)c(NC(=O)[C@H](c2ccc(C3CC3(F)F)cc2)[C@@H](C)C(F)(F)F)c1` (stereo partly shown) [Example 13]: in assay [1], the minimal effective concentration was determined as 0.0003 µM. Further, in assay [2], the “MEC (minimum effective concentration)” value worked out at 0.5 nM and the pEC50 is 7.85.

Take `COc1cc([C@@H](C(=O)Nc2cc(C(CC(=O)O)C(C)C)ccc2Cl)[C@@H](C)C(F)(F)F)ccc1Cl` (stereo partly shown) [Example 15]: the minimal effective concentration in assay [1] was determined as 0.003 µM.

For the compound `Cc1cc([C@@H](C(=O)Nc2cc(C(CC(=O)O)C(C)C)ccc2Cl)[C@@H](C)C(F)(F)F)ccc1Cl` (stereo partly shown) [Example 17], in assay [1], the minimal effective concentration is 0.001 µM. Turning to `CC(C)C(CC(=O)O)c1ccc(Cl)c(NC(=O)C(c2ccc(Cl)cc2)C2CCC(F)(F)C2)c1` (stereo not shown) [Example 18], in assay [1], the minimal effective concentration is 0.3 µM. As for `CC(C)C(CC(=O)O)c1ccc(Cl)c(NC(=O)C(c2ccc(Cl)cc2)C2CCC(F)(F)C2)c1` (stereo not shown) [Example 19], the minimal effective concentration in assay [1] worked out at 0.03 µM. Regarding `CC(C)C(CC(=O)O)c1ccc(Cl)c(NC(=O)C(c2ccc(Cl)cc2)C2CCC(F)(F)C2)c1` (stereo not shown) [Example 20], in assay [1], the minimal effective concentration is 1 µM. As to `CC(C)C(CC(=O)O)c1ccc(Cl)c(NC(=O)C(c2ccc(Cl)cc2)C2CCC(F)(F)C2)c1` (stereo not shown) [Example 21], in assay [1], the minimal effective concentration was 0.01 µM. `C[C@H]([C@H](C(=O)Nc1cc(C(CC(=O)O)C2CC2)ccc1Cl)c1ccc(Cl)cc1)C(F)(F)F` (stereo partly shown) [Example 23]: the minimal effective concentration in assay [1] was 0.003 µM. For the compound `COC(C)(C)C(CC(=O)O)c1ccc(Cl)c(NC(=O)[C@H](c2ccc(Cl)cc2)[C@@H](C)C(F)(F)F)c1` (stereo partly shown) [Example 25], in assay [1], the minimal effective concentration came to 0.01 µM. Besides, in assay [2], the “MEC (minimum effective concentration)” value is given as 5.1 nM and the pEC50 is 6.66. In the same order, the values of `C[C@H]([C@H](C(=O)Nc1cc(C(CC(=O)O)C2(F)CC2)ccc1Cl)c1ccc(Cl)cc1)C(F)(F)F` (stereo partly shown) [Example 27] are 0.003 µM, 1.7 nM and 7.17.

For `C[C@H]([C@H](C(=O)Nc1cc(C(CC(=O)O)C2CC(F)(F)C2)ccc1Cl)c1ccc(Cl)cc1)C(F)(F)F` (stereo partly shown) [Example 28], the minimal effective concentration in assay [1] is 0.03 µM.

`CC(C(=O)O)C(c1ccc(Cl)c(NC(=O)C(c2ccc(Cl)cc2)[C@@H](C)C(F)(F)F)c1)C1CC1` (stereo partly shown) [Example 30]: the minimal effective concentration in assay [1] is 0.01 µM. In assay [2], the “MEC (minimum effective concentration)” value worked out at 1.7 nM and the pEC50 was 6.19.

Turning to `C[C@H](C(C(=O)Nc1cc(C(CC(=O)O)C2CC2(F)F)ccc1Cl)c1ccc(Cl)cc1)C(F)(F)F` (stereo partly drawn) [Example 31, 3-(4-Chloro-3-{[(3R)-2-(4-chlorophenyl)-4,4,4-trifluoro-3-methylbutanoyl]amino}phenyl)-3-(2,2-difluorocyclopropyl)propanoic acid], the minimal effective concentration in assay [1] is 0.003 µM.
